We go through 2 compounds from ChEMBL document CHEMBL1201862, “PubChem BioAssay data set” (2004).

A word on the AC50: it is the concentration at which the activity in the assay is half-maximal. The term EC50 denotes the midpoint of the concentration-response curve.

Molecules are shown by their SMILES. Active and inactive are the calls of the source. Some results are limits rather than exact numbers.

Experiment [1] in a line: IGROV1 ovarian cancer cell cytotoxicity, dose response, PAX8 inhibitor project, plate reader, dry powder samples (AID 743043). The format is functional, cell-based. The conditions noted are these: IGROV-1.
Experiment [2] is described as follows: cytotoxicity in HPDE-C7 cells, cell-based, fluorescence, HTS (AID 430). The format is functional. Conditions: Homo sapiens.
Experiment [3] addresses T1, Replicative DNA helicase DnaB (Mycobacterium tuberculosis, UniProt P9WMR3).
T1 sequence (P9WMR3 whole entry): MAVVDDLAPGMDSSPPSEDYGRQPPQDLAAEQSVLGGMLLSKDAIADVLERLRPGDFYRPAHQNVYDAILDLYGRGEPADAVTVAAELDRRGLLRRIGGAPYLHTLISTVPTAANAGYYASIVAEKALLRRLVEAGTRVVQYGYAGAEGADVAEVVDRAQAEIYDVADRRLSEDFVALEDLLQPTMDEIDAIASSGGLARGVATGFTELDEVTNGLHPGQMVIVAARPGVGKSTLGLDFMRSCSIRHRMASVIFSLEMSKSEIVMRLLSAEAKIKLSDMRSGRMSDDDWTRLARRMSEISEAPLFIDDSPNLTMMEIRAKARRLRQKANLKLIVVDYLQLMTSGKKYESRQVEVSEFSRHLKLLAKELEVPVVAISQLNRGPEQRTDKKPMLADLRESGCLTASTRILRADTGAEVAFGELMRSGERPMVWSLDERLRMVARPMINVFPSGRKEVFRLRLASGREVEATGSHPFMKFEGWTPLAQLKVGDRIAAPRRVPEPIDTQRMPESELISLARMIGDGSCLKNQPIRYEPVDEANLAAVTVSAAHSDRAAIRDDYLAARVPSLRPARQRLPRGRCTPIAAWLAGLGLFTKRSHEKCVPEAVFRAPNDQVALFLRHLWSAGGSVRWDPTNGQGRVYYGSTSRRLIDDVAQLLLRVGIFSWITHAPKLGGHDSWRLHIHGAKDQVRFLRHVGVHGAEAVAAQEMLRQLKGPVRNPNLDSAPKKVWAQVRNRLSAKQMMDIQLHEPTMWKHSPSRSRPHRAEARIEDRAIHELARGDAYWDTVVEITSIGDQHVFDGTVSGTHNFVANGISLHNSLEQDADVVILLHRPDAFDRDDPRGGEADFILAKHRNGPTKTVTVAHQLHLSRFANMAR
Briefly: DnaB intein splicing inhibitors, dose response, biochemical, cell-free fluorescence (AID 449749). In kind it is functional.

Experiment [4] concerns A-375. Briefly: MITF: Counter assay: A375 proliferation Measured in Cell-Based System Using Plate Reader - 2084-03_Inhibitor_Dose_DryPowder_Activity. [Related pubchem assays (depositor defined):AID488944]. The conditions noted are these: Homo sapiens. The format is functional.
For a further experiment, the system named is H4. Briefly: Luminescence Cell-Based Dose Response HTS to Identify Activators of 5'UTR Stem-Loop Driven Prion Protein mRNA Translation in H4 Neuroglioblastoma Cells. [Related pubchem assays: 1829 (Project Summary), 1814 (Primary HTS)]. In kind it is functional. Conditions: Homo sapiens.
Experiment [5] can be described thus: A2780 ovarian cancer cell cytotoxicity, dose response, cytotoxicity control, plate reader, dry powder samples (AID 743046). In kind it is functional, cell-based.
A short description of experiment [6]: cytotoxicity in OVCAR4 cells, dose response, cytotoxicity control for PAX8 inhibitor project, cell-based, plate reader, dry powder, SA11 (AID 743150). The format is functional. The conditions noted are these: OVCAR-4.
Experiment [7] is described as follows: cytotoxicity dependent on PAX8, dose response, cell-based, plate reader, dry powder (AID 743049). The format is functional.
The target in a further experiment is T2, Protein RecA (Mycobacterium tuberculosis, UniProt P9WHJ3).
T2 sequence (P9WHJ3 whole entry): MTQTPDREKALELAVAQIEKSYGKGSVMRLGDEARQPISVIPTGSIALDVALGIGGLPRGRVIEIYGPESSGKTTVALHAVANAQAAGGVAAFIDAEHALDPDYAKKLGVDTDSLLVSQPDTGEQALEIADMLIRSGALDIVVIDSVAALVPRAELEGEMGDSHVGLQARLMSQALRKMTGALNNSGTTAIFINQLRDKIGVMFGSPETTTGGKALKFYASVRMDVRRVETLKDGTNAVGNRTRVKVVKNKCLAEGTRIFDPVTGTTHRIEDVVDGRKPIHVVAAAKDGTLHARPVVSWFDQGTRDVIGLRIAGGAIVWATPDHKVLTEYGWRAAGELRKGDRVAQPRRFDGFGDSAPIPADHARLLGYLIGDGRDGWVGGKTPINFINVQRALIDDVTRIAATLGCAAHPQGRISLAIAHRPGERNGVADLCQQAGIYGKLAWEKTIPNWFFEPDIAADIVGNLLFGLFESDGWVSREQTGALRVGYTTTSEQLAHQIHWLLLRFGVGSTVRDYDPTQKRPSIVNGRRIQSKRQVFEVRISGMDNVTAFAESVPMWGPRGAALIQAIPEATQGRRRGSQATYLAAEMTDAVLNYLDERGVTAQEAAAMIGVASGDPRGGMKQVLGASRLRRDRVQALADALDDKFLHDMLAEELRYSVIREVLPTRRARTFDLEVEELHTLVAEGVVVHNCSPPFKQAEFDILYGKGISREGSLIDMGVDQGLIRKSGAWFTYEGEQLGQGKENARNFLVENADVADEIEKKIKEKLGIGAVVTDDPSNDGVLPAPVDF
Briefly: Fluorescence Cell-Free Homogeneous Dose Retest to Identify Inhibitors of RecA-Intein Splicing Activity. [Related pubchem assays (depositor defined):AID2097, AID2223, AID489010, AID492950]. In kind it is functional.

A short description of experiment [8]: cytotoxicity in OV-90 ovarian cancer cells, dose response, PAX8 inhibitor project, cell-based, plate reader, dry powder, SA8 (AID 743149). In kind it is functional.
Experiment [9] can be described thus: cytotoxicity in COV362 ovarian cancer cells, dose response, cytotoxicity control for PAX8 inhibitor project, cell-based, plate reader, dry powder, SA12 (AID 743144). In kind it is functional.
The nature of experiment [10]: PAX2 cell-based inhibition, dose response, selectivity assay for PAX8 inhibitor project, plate reader, dry powder samples (AID 743048).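 Also: HEK293 cells carrying a WT1 promoter luciferase reporter driven by expressed Pax2; potency is for inhibition of Pax2 driven reporter signal.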 In kind it is functional.
Experiment [11] in a line: IOSE-T80 ovarian epithelial cell cytotoxicity, dose response, cytotoxicity control for PAX8 inhibitor project, plate reader, dry powder samples (AID 743045). The format is functional, cell-based.
A short description of experiment [12]: Luminescence Cell-Based Dose Response HTS to Identify Activators of Luciferase Translation or Activity in H4 […] Cells. [Related pubchem assays: 1829 (Project Summary), 1814 (Primary HTS)]. The format is functional.
In a further experiment the target is Paired box protein Pax-8 (Homo sapiens, UniProt Q06710). Briefly: inhibitors of PAX8-driven TPO luciferase reporter, dose response, RMG-I cells, cherry-pick (AID 687027).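 Also: luciferase reporter driven by Pax8 target thyroperoxidase promoter measured by SteadyGlo luminescence.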 The format is functional, cell-based. On the technique in general: In a reporter assay the amount or activity of a reporter protein is the signal.
Paired box protein Pax-8, sequence (Q06710 whole entry): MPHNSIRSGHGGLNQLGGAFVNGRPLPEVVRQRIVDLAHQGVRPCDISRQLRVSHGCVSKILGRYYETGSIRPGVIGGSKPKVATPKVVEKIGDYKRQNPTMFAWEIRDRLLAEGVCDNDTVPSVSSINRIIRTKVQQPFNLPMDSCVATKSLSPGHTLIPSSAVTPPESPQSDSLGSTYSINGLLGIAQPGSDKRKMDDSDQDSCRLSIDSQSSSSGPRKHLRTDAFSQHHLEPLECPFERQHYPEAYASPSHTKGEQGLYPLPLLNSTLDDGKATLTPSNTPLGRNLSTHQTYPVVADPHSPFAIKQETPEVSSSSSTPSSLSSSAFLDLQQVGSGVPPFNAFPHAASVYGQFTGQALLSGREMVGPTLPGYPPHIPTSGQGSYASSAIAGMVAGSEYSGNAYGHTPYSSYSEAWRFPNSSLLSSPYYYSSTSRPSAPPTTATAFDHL
The nature of experiment [13]: PAX5 activity inhibitors, dose response, selectivity assay for PAX8 inhibitor project, cell-based, plate reader, dry powder samples (AID 743047).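 Also: HEK293 cells carrying a Pax5 driven CD19 promoter luciferase reporter; potency of inhibitors that lower reporter luminescence.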 In kind it is functional.
For experiment [14], the system named is A-375. Briefly: A375 melanoma cell viability reduction, dose response, counter-screen for MITF modulator project, cherry-pick samples, set 2 (AID 540335). Conditions: Homo sapiens. The format is functional, cell-based. In general terms: Counterscreens check selectivity or assay interference.
The target of experiment [15] is T3, Microphthalmia-associated transcription factor (Homo sapiens, UniProt O75030).
T3 sequence (O75030 whole entry): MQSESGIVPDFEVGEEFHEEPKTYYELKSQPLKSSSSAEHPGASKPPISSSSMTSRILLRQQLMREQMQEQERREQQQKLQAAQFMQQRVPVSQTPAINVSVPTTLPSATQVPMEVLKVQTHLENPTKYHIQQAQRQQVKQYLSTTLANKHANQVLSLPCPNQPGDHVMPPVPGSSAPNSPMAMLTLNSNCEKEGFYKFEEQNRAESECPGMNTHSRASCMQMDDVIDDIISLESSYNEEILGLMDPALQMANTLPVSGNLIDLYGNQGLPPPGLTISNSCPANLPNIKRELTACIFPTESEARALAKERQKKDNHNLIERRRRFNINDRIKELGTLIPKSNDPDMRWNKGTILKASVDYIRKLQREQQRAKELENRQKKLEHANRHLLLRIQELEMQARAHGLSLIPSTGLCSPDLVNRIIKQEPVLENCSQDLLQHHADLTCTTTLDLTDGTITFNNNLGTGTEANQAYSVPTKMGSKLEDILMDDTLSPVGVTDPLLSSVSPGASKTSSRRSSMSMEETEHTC
Briefly: TRPM1 promoter luciferase signal decrease, dose response, MITF inhibitor project, cell-based, SK-MEL-5, cherry-picked, set 3 (AID 493073).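 Also: SK-MEL-5 melanoma cells with luciferase driven by the MITF target TRPM1 promoter.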 In kind it is functional.

The nature of experiment [16]: cytotoxicity in COV434 cells, dose response, cytotoxicity control for PAX8 inhibitor project, cell-based, plate reader, dry powder, SA7 (AID 743145). The format is functional.
The nature of experiment [17]: cytotoxicity in KRAS-transformed pancreatic duct cells, primary screen, cell-based, fluorescence, HTS (AID 431).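 Also: cell line used: HPDE-C7K.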 In kind it is functional. The conditions noted are these: Homo sapiens.
The nature of experiment [18]: cytotoxicity in HMLE control line with eGFP shRNA, dose response, counter-screen for HMLE_sh_ECad selective toxicity project, cell-based, HMLE_sh_eGFP, luminescence (AID 463074).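 Also: HMLE human mammary epithelial cells expressing control shRNA against eGFP.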 In kind it is functional, Homo sapiens.
The nature of experiment [19]: Luminescence Cell-Based Dose Retest to Confirm Inhibitors of Cancer Stem Cells. [Related pubchem assays (depositor defined):AID2717, AID2721]. In kind it is functional. The conditions noted are these: Homo sapiens.

On to `Cn1nnnc1Sc1ncnc2scc(-c3ccc(F)cc3)c12`, for which the AC50 is 35.6 µM (active) in experiment [1]; 93 µM (active) in [3]; > 35 µM (active) in the experiment with A-375 [4]; 29.8 µM (active) in experiment [5]; 39.7 µM (active) in [6]; 26.6 µM (active) in [7]. The AC50 was 44.6 µM (active) in experiment [8]; 48 µM (active) in experiment [9]; 28.6 µM (active) in experiment [10]; 68.6 µM (active) in [11]; 4.15 µM (active) on Paired box protein Pax-8; 36.4 µM (active) in experiment [13]. The AC50 was > 35 µM (active) in the experiment with A-375 [14], 8.1 µM (active) in experiment [15] and 37.1 µM (active) in experiment [16]. Moreover, the concentration giving a half-maximal response (EC50) was 5.23 µM (active) in experiment [2]; > 120 µM (not active) in the experiment on H4; 11.2 µM (active) on Protein RecA; 0.116 µM (active) in experiment [12]; 5.32 µM (active) in experiment [17].
With `O=C(NC(=S)Nc1ccc2oc(=O)ccc2c1)c1ccc(-c2cccc(Cl)c2Cl)o1`, the results for the AC50 in experiment [18] and in [19] were 39.2 µM (active) and 2.77 µM (active), respectively.
